{"source": "paper PMC5899197", "about": "(Journal of Virology, 2018)"}
{"target": "T1, BNeV VLPs (rMA415; VP1-major capsid and VP2-minor capsid) (Newbury agent 1, UniProt Q288N7)", "T1 construct": "gene ORF1", "T1 sequence (Q288N7 whole entry, looked up)": "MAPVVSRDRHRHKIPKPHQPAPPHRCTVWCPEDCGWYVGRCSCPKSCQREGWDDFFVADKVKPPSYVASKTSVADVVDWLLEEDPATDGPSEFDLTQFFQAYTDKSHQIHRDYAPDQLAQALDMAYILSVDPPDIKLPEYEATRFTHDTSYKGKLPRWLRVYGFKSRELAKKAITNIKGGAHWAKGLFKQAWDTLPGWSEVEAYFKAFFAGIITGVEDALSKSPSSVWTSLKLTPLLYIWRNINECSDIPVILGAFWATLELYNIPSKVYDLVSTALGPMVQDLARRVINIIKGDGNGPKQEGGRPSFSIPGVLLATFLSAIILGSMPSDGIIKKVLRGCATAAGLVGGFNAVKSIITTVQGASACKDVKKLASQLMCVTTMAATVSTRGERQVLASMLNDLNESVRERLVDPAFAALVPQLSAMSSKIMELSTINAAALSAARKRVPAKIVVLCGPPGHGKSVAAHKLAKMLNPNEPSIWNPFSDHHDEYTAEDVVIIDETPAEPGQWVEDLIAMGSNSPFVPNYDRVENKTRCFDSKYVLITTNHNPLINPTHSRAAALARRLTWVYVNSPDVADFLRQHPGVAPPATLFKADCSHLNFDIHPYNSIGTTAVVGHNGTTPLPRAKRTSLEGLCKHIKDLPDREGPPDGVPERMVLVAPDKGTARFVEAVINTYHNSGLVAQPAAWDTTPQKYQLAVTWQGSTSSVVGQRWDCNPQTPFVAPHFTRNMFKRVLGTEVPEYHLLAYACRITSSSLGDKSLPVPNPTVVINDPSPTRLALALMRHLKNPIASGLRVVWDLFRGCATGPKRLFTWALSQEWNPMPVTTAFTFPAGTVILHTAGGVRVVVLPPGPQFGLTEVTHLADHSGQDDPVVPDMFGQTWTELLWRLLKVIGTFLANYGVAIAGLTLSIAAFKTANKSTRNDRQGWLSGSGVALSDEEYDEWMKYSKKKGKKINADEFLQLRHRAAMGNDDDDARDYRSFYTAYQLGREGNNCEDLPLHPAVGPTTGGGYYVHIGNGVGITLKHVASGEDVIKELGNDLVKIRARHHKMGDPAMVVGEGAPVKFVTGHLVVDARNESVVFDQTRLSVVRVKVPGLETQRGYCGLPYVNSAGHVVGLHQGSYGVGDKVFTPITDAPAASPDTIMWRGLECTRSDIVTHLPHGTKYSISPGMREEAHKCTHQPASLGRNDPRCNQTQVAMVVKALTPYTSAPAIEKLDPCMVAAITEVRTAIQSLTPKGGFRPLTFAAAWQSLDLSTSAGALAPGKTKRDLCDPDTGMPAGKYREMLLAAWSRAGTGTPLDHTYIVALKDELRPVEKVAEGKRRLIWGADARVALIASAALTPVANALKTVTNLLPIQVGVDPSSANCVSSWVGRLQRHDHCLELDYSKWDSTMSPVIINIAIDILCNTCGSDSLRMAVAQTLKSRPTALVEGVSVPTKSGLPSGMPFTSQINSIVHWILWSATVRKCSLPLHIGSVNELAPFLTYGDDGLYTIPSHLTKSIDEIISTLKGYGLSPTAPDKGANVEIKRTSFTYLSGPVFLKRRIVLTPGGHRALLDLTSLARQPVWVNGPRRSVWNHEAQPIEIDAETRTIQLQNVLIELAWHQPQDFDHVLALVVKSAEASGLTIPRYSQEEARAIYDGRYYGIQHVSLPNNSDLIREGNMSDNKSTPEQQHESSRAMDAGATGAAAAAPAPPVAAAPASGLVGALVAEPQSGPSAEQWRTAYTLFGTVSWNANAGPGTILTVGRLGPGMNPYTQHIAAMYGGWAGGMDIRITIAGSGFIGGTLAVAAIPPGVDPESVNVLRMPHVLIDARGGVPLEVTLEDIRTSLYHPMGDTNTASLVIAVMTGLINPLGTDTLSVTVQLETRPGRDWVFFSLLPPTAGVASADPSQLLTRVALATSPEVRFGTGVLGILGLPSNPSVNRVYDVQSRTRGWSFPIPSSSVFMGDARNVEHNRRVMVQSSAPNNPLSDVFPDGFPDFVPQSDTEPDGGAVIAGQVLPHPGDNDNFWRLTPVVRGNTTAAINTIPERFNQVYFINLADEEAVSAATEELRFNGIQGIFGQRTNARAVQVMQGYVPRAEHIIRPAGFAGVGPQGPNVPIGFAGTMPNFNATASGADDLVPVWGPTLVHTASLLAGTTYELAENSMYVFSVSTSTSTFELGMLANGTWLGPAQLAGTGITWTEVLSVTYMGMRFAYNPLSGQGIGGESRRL", "format": "binding"}
{"smiles": "CC(=O)N[C@H]1C(O)O[C@H](CO)[C@@H](O[C@@H]2O[C@H](CO)[C@H](O)[C@H](O)[C@H]2O[C@@H]2O[C@@H](C)[C@@H](O)[C@@H](O)[C@@H]2O)[C@@H]1O", "note": "(stereo partly shown) [H2]", "plate binding assay (ELISA), HRP-streptavidin, A450": "sialyl-Le^a (SLe^a), Le^y, Le^x, αGal, H2, H1, SLe^x, A, and B type immobilized synthetic HBGA"}
{"smiles": "CC(=O)N[C@H]1C(O)O[C@H](CO)[C@@H](O[C@@H]2O[C@H](CO)[C@H](O)[C@H](O)[C@H]2O)[C@@H]1O[C@@H]1O[C@@H](C)[C@@H](O)[C@@H](O)[C@@H]1O", "note": "(stereo partly shown) [Le^x]", "plate binding assay (ELISA), HRP-streptavidin, A450": "sialyl-Le^a (SLe^a), Le^y, Le^x, αGal, H2, H1, SLe^x, A, and B type immobilized synthetic HBGA"}
{"smiles": "CC(=O)N[C@H]1C(O)O[C@H](CO)[C@@H](O[C@@H]2O[C@H](CO)[C@H](O)[C@H](O)[C@H]2O[C@@H]2O[C@@H](C)[C@@H](O)[C@@H](O)[C@@H]2O)[C@@H]1O[C@@H]1O[C@@H](C)[C@@H](O)[C@@H](O)[C@@H]1O", "note": "(stereo partly shown) [Le^y]", "plate binding assay (ELISA), HRP-streptavidin, A450": "sialyl-Le^a (SLe^a), Le^y, Le^x, αGal, H2, H1, SLe^x, A, and B type immobilized synthetic HBGA"}
{"smiles": "CC(=O)N[C@H]1[C@H]([C@H](O)[C@H](O)CO)O[C@@](O[C@H]2[C@@H](O)[C@@H](CO)O[C@@H](O[C@H]3[C@H](O[C@@H]4O[C@@H](C)[C@@H](O)[C@@H](O)[C@@H]4O)[C@@H](CO)OC(O)[C@@H]3NC(C)=O)[C@@H]2O)(C(=O)O)C[C@@H]1O", "note": "(stereo partly shown) [sialyl-Le^a]", "plate binding assay (ELISA), HRP-streptavidin, A450": "sialyl-Le^a (SLe^a), Le^y, Le^x, αGal, H2, H1, SLe^x, A, and B type immobilized synthetic HBGA"}
